# Counter-ions that a name gives are not always drawn.
# Biological target: T1, human clotting factor VIIa (Homo sapiens, UniProt P08709)
# T1 construct: a human clotting factor VIIa (hereinafter, “Factor VIIa”) purified sample; purchased Enzyme Research Laboratories HFVIIa
# Test: Inhibitory activity against clotting factor VIIa (chromogenic substrate Spectrozyme FVIIa, TF/Factor VIIa enzyme solution)
# Type: biochemical
# Conditions: human Factor VIIa 5 nmol/L with human TF 10 nmol/L, room temperature 40 minutes, 405 nm
# Outline: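 Human Factor VIIa (5 nmol/L) with human TF (10 nmol/L) in Tris-BSA buffer pH 7.4 containing 15 mmol/L CaCl2 and cephalin, with Spectrozyme FVIIa substrate. Reaction 40 min at room temperature; 4-nitroanilide read at 405 nm. IC50 by non-linear regression over 100 μmol/L–0.1 nmol/L.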
# T1 sequence (P08709 213-466 limits assumed): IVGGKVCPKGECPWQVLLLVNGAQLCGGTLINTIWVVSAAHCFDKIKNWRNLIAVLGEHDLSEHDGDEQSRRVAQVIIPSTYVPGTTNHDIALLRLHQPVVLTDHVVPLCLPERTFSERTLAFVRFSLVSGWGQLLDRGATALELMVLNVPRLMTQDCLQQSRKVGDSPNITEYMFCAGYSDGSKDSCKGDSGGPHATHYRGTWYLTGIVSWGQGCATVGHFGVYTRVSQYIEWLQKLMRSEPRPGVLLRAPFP
# T1 sequence (P08709 61-212 limits assumed): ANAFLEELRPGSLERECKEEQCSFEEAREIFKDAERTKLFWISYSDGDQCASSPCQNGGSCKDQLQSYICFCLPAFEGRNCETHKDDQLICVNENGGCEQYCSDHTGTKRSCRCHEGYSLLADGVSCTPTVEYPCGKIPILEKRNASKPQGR
# T1 sequence (P13726 33-295 partner): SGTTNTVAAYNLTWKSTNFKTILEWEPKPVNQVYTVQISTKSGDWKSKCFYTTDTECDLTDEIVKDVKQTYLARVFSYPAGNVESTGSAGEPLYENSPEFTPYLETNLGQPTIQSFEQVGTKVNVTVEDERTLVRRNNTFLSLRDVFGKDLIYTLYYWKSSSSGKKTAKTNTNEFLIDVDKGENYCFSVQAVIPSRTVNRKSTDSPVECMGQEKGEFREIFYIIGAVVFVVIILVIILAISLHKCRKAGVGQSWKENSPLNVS
row,SMILES,IC50 [nM]
1,"COc1cc(CF)cc(C(Nc2ccc(C(=N)N)cc2)c2nn(-c3ncccn3)c(=O)[nH]2)c1 (stereo not drawn) [Example 11, 4-{[(3-fluoromethyl-5-methoxyphenyl)-(5-oxo-1-pyrimidin-2-yl-4,5-dihydro-1H-[1,2,4]triazol-3-yl)methyl]amino}benzamidine acetate]",29.7
2,"COc1ccccc1-n1nc(C(Nc2ccc(C(=N)N)cc2)c2cc(C)cc(OC)c2F)[nH]c1=O (stereo not drawn) [Example 14, 4-({(2-fluoro-3-methoxy-5-methylphenyl)-[1-(2-methoxyphenyl)-5-oxo-4,5-dihydro-1H-[1,2,4]triazol-3-yl]methyl}amino)benzamidine trifluoroacetate]",5.9
3,"COc1cc(C(Nc2ccc(C(=N)N)cc2)c2nn(-c3ncccn3)c(=O)[nH]2)cc(CO)c1OC (stereo not drawn) [Example 23, 4-{[(5-hydroxymethyl-3,4-dimethoxyphenyl)-(5-oxo-1-pyrimidin-2-yl-4,5-dihydro-1H-[1,2,4]triazol-3-yl)methyl]amino}benzamidine acetate]",23.9
4,"COc1cc(C(Nc2ccc(C(=N)N)cc2)c2nn(-c3ncccn3)c(=O)[nH]2)cc(C(C)O)c1OC (stereo not drawn) [Example 25, 4-({[3-(1-hydroxyethyl)-4,5-dimethoxyphenyl]-(5-oxo-1-pyrimidin-2-yl-4,5-dihydro-1H-[1,2,4]triazol-3-yl)methyl}amino)benzamidine acetate]",15.1
5,"COc1cc(OCCF)c(F)c(C(Nc2ccc(C(=N)N)cc2)c2nn(-c3cccc(N)n3)c(=O)[nH]2)c1 (stereo not drawn) [Example 51, 4-({[1-(6-aminopyridin-2-yl)-5-oxo-4,5-dihydro-1H-[1,2,4]triazol-3-yl]-[2-fluoro-3-(2-fluoroethoxy)-5-methoxyphenyl]methyl}amino)benzamidine trifluoroacetate]",5.1
6,"COc1cc(C(Nc2ccc(C(=N)N)cc2)c2nn(-c3ncccc3N)c(=O)[nH]2)cc2c1OCOC2 (stereo not drawn) [Example 57, 4-({[1-(3-aminopyridin-2-yl)-5-oxo-4,5-dihydro-1H-[1,2,4]triazol-3-yl]-(8-methoxy-4H-benzo[1,3]dioxin-6-yl)methyl}amino)benzamidine acetate]",8.9
7,"CCc1cc(OCC#N)cc(C(Nc2ccc(C(=N)N)cc2)c2nn(-c3ncccn3)c(=O)[nH]2)c1 (stereo not drawn) [Example 77, 4-{[(3-cyanomethoxy-5-ethylphenyl)-(5-oxo-1-pyrimidin-2-yl-4,5-dihydro-1H-[1,2,4]triazol-3-yl)methyl]amino}benzamidine acetate]",8.8
8,"CCOc1cc(COC)cc(C(Nc2ccc(C(=N)N)cc2)c2nn(-c3ncccn3)c(=O)[nH]2)c1 (stereo not drawn) [Example 83, 4-{[(3-ethoxy-5-methoxymethylphenyl)-(5-oxo-1-pyrimidin-2-yl-4,5-dihydro-1H-[1,2,4]triazol-3-yl)methyl]amino}benzamidine acetate]",24.8
9,"CCOc1cc(CF)cc(C(Nc2ccc(C(=N)N)cc2)c2nn(-c3ncccn3)c(=O)[nH]2)c1 (stereo not drawn) [Example 84, 4-{[(3-ethoxy-5-fluoromethylphenyl)-(5-oxo-1-pyrimidin-2-yl-4,5-dihydro-1H-[1,2,4]triazol-3-yl)methyl]amino}benzamidine acetate]",16.9
10,"COc1cc(C(Nc2ccc(C(=N)N)cc2)c2nn(-c3ncccn3)c(=O)[nH]2)cc(OC)c1OC (stereo not drawn) [Example 86, 4-{[(5-oxo-1-pyrimidin-2-yl-4,5-dihydro-1H-[1,2,4]triazol-3-yl)-(3,4,5-trimethoxyphenyl)methyl]amino}benzamidine acetate]",51.7
11,"COCCOc1c(OC)cc(C(Nc2ccc(C(=N)N)cc2)c2nn(-c3ccccc3OC)c(=O)[nH]2)cc1OC (stereo not drawn) [Example 87, 4-({[3,5-dimethoxy-4-(2-methoxyethoxy)phenyl]-[1-(2-methoxyphenyl)-5-oxo-4,5-dihydro-1H-[1,2,4]triazol-3-yl]methyl}amino)benzamidine acetate]",4.2
12,"CCOc1cccc(C(Nc2ccc(C(=N)N)cc2)c2nn(-c3ncccn3)c(=O)[nH]2)c1 (stereo not drawn) [Example 90, 4-{[(3-ethoxyphenyl)-(5-oxo-1-pyrimidin-2-yl-4,5-dihydro-1H-[1,2,4]triazol-3-yl)methyl]amino}benzamidine acetate]",66.6
13,"COc1ccccc1-n1nc(C(Nc2ccc(C(=N)N)cc2)c2cc(C)cc(OCCF)c2F)[nH]c1=O (stereo not drawn) [Example 91, 4-({[2-fluoro-3-(2-fluoroethoxy)-5-methylphenyl]-[1-(2-methoxyphenyl)-5-oxo-4,5-dihydro-1H-[1,2,4]triazol-3-yl]methyl}amino)benzamidine trifluoroacetate]",6.4
14,"COc1cc(C(Nc2ccc(C(=N)N)cc2)c2nn(-c3ccccc3C(N)=O)c(=O)[nH]2)ccc1OCC(=O)N(C)C (stereo not drawn) [Example 105, 2-{3-[(4-carbamimidoyl-phenylamino)-(4-dimethylcarbamoylmethoxy-3-methoxyphenyl)methyl]-5-oxo-4,5-dihydro-1H-[1,2,4]triazol-1-yl}benzamide trifluoroacetate]",31.7
15,"COc1cc(F)c(C(Nc2ccc(C(=N)N)cc2)c2nn(-c3ccccc3N)c(=O)[nH]2)cc1OC (stereo not drawn) [Example 107, 4-({[1-(2-aminophenyl)-5-oxo-4,5-dihydro-1H-[1,2,4]triazol-3-yl]-(2-fluoro-4,5-dimethoxyphenyl)methyl}amino)benzamidine trifluoroacetate]",4.3
16,"COc1ccccc1-n1nc(C(Nc2ccc(C(=N)N)cc2)c2cc(C)c(OC)c(C)c2)[nH]c1=O (stereo not drawn) [Example 112, 4-({(4-methoxy-3,5-dimethylphenyl)-[1-(2-methoxyphenyl)-5-oxo-4,5-dihydro-1H-[1,2,4]triazol-3-yl]methyl}amino)benzamidine acetate]",7.2
17,"CCOc1cc(C(Nc2ccc(C(=N)N)cc2)c2nn(-c3ncccn3)c(=O)[nH]2)ccc1OCC#N (stereo not drawn) [Example 114, 4-{[(4-cyanomethoxy-3-ethoxyphenyl)-(5-oxo-1-pyrimidin-2-yl-4,5-dihydro-1H-[1,2,4]triazol-3-yl)methyl]amino}benzamidine trifluoroacetate]",22.8
18,"COc1cc(F)c(C(Nc2ccc(C(=N)N)cc2)c2nn(-c3ncccc3OC)c(=O)[nH]2)cc1OC (stereo not drawn) [Example 124, 4-({(2-fluoro-4,5-dimethoxyphenyl)-[1-(3-methoxypyridin-2-yl)-5-oxo-4,5-dihydro-1H-[1,2,4]triazol-3-yl]methyl}amino)benzamidine acetate]",10

# Continued, values first:
row,IC50 [nM],SMILES
1,9.3,"COc1cc(C(Nc2ccc(C(=N)N)cc2)c2nn(-c3nc[nH]c3C(=O)O)c(=O)[nH]2)c(F)c2c1OCCO2 (single isomer, unassigned) [Example 191, 5-{3-[(R) or (S)-(4-Carbamimidoylphenylamino)-(5-fluoro-8-methoxy-2,3-dihydrobenzo[1,4]dioxin-6-yl)methyl]-5-oxo-4,5-dihydro-[1,2,4]triazol-1-yl}-3H-imidazole-4-carboxylic acid trifluoroacetate]"
2,19.6,"COc1cc(OCCCO)c(F)c(C(Nc2ccc(C(=N)N)cc2)c2nn(-c3[nH]ncc3C(=O)O)c(=O)[nH]2)c1 (single isomer, unassigned) [Example 198, (R) or (S)-5-(3-{(4-Carbamimidoylphenylamino)-[2-fluoro-3-(3-hydroxypropoxy)-5-methoxyphenyl]methyl}-5-oxo-4,5-dihydro-[1,2,4]triazol-1-yl)-1H-pyrazole-4-carboxylic acid acetate]"
3,13.4,"COc1cc(COCCO)c(F)c(C(Nc2ccc(C(=N)N)cc2)c2nn(-c3ncccn3)c(=O)[nH]2)c1 (single isomer, unassigned) [Example 216, 4-{[[2-Fluoro-3-(2-hydroxyethoxymethyl)-5-methoxyphenyl]-(5-oxo-1-pyrimidin-2-yl-4,5-dihydro-1H-[1,2,4]triazol-3-yl)methyl]amino}benzamidine]"
4,10.3,"COc1cc(F)c(C(Nc2ccc(C(=N)N)cc2)c2nn(-c3ncccc3F)c(=O)[nH]2)cc1OC (stereo not drawn) [Example 125, 4-({(2-fluoro-4,5-dimethoxyphenyl)-[1-(3-fluoropyridin-2-yl)-5-oxo-4,5-dihydro-1H-[1,2,4]triazol-3-yl]methyl}amino)benzamidine acetate]"
5,10.9,"CCOc1cc(C(Nc2ccc(C(=N)N)cc2)c2nn(-c3ncccc3OC)c(=O)[nH]2)ccc1OCC(=O)NC (stereo not drawn) [Example 126, 2-(4-{(4-carbamimidoylphenylamino)-[1-(3-methoxypyridin-2-yl)-5-oxo-4,5-dihydro-1H-[1,2,4]triazol-3-yl]methyl}-2-ethoxyphenoxy)-N-methyl-acetamide acetate]"
6,9.3,"CCOc1cc(C(Nc2ccc(C(=N)N)cc2)c2nn(-c3ncccc3C)c(=O)[nH]2)ccc1OCC(=O)NC (stereo not drawn) [Example 127, 2-(4-{(4-carbamimidoylphenylamino)-[1-(3-methylpyridin-2-yl)-5-oxo-4,5-dihydro-1H-[1,2,4]triazol-3-yl]methyl}-2-ethoxyphenoxy)-N-methylacetamide acetate]"
7,9.9,"CCOc1cc(C(Nc2ccc(C(=N)N)cc2)c2nn(-c3ncccc3C)c(=O)[nH]2)ccc1OCCOC (stereo not drawn) [Example 128, 4-({[3-ethoxy-4-(2-methoxyethoxy)phenyl]-[1-(3-methylpyridin-2-yl)-5-oxo-4,5-dihydro-1H-[1,2,4]triazol-3-yl]methyl}amino)benzamidine acetate]"
8,11.7,"COc1cc(F)c(C(Nc2ccc(C(=N)N)cc2)c2nn(-c3ncccc3Br)c(=O)[nH]2)cc1OC (stereo not drawn) [Example 134, 4-({[1-(3-bromopyridin-2-yl)-5-oxo-4,5-dihydro-1H-[1,2,4]triazol-3-yl]-(2-fluoro-4,5-dimethoxyphenyl)methyl}amino)benzamidine acetate]"
9,8.6,"CCc1cc(OCC(=O)N(C)C)c(F)c(C(Nc2ccc(C(=N)N)cc2)c2nn(-c3ccccc3NC(=O)OC)c(=O)[nH]2)c1 (stereo not drawn) [Example 135, (2-{3-[(4-carbamimidoylphenylamino)-(3-dimethylcarbamoylmethoxy-5-ethyl-2-fluorophenyl)methyl]-5-oxo-4,5-dihydro-1H-[1,2,4]triazol-1-yl}phenyl)carbamic acid methyl ester trifluoroacetate]"
